Assay results: PMC8945229, “Development and Biological Characterization of a Novel Selective TrkA Agonist with Neuroprotective Properties against Amyloid Toxicity” (Biomedicines, 2022)

Tested on: CYP1A2, CYP2A6, CYP2B6, CYP2C9, CYP2C19, CYP2D6 and CYP3A4
Test: CYP450 catalytic and metabolic activity, seven isoforms
Format: in vitro ADME, human
Settings: 1 μM
Method: Baculosomes® expressing CYP1A2, CYP2A6, CYP2B6, CYP2C9, CYP2C19, CYP2D6 and CYP3A4 human CYP450 isoenzymes were purchased from Thermo Fisher Scientific (Waltham, MA, USA). All reagents were handled and prepared according to the manufacturer’s protocol. ENT-A013 was tested at 1 μM. Enzymatic activity in the presence of ΕΝΤ-A013 was assessed based on the kinetic model for CYP1A2, CYP2A6, CYP2B6, CYP2C9, CYP2C19, CYP2D6 and CYP3A4 isoforms. Reactions took place in triplicates at 20 °C. Glucose-6-phosphate at 333 mM and glucose-6-phosphate-dehydrogenase at 30 U/mL in 100 mM potassium phosphate, pH 8.0 (regeneration system) converted NADP^+ (10 mM in 100 mM potassium phosphate, pH 8.0) into NADPH to initiate the CYP450 reaction. Upon the addition of the fluorescent substrate, immediately (<2 min), the fluorescence signal was monitored over time at suitable excitation and emission wavelengths by Lionheart FX (BioTek, Winooski, VT, USA) (Table S2). CYP450 inhibition (%) was determined based on the reaction rates (fluorescence intensity changes per unit time). A total of n = 60 measurements per minute were acquired for a total time of t = 60 min. % Inhibition= (1 − X/A) × 100%(1) where: X is the rate observed in the presence of test-compound; A is the rate observed in the presence of negative (solvent, DMSO) control.

Q: With `CC12CCC(O)CC1=CCC1C2CCC2(C)C1CCC21CC1C=CBr` [ENT-A013, (2′R,3S,17S)-2′-(2-Bromovinyl)-5-Androstene-17,1′-Cyclopropan-3-ol] as the compound, how does the “enzyme (catalytic) activity of the seven major CYP450s” value (relative fluorescence of product) read?
A: did not decrease the enzyme (catalytic) activity

Q: And the “CYP450 (%) metabolic activity, residual % of time zero (in words)” value (t = 0 to t = 60 min)?
A: overall metabolically stable
